# Measured values published in patent US20170066797A1, “WITHAFERIN A ANALOGS AND USES THEREOF” (Whitehead Institute for Biomedical Research, priority 2008, published 2017).
# Tested on: rat spinal cord motor neurons
# Test: Neurotrophic factor (BDNF) deprivation-induced apoptosis of spinal cord motor neurons
# Format: cell-based
# Settings: for reduction in cell death of motor neurons plated in the absence of BDNF: 24 hours, calcein-A
# Description: FIGS. 12A-12D. Neuronal survival and increase in neurite length as assessed by calcein-A staining which is taken up by viable neurons. (A) In the absence of BDNF (−BDNF) there is approximately 40% reduction in viable motor neurons compared to wells with BDNF present (+BDNF). Addition of withaferin A (WA) to the motor neuron cultures plated in the absence of BDNF results in a 50% reduction in cell death at 200 nM (0.2 μM) concentration of WA and a 75% reduction in cell death at 400 nM (0.4 μM) as assessed after 24 hours. […] (B) Graph showing percent protection. (C) Motor neuron viability assay of WA. (D) WA increases neurite length (normalized to control) measured at the end of the experiment.
# Neurotrophic factor deprivation-induced apoptosis of rat spinal cord motor neurons was used as a model system to evaluate neuroprotective activity of withaferin A. Primary spinal cord motor neurons were purified from E15 rats. These cells were dissociated from the ventral spinal cord, enriched by density gradient centrifugation, and purified by magnetic bead cell separation using an antibody against p75NTR which is expressed on the cell surface of motor neurons at this developmental age. The resulting cultures are ˜96% motor neurons as assessed by HB9 or islet-1 immunoreactivity and are virtually devoid of astrocytes or microglia. For viability experiments, the cells were plated at a low density (500 cells/well of a 96-well plate). In these cultures, motor neuron survival is highly dependent on trophic factors added to the culture media (in the form of BDNF, GDNF, or cardiotrophin-1), as ˜50% of the attached cells will undergo apoptosis when deprived of trophic factors (Oppenheim, R. W., et al., Nature, 360: 755-757; Henderson, C. E., et al., Science, 266: 1062-1064, 1994). BDNF was used as the trophic factor.
# Neuronal survival was assessed by staining with calcein-A, a fluorescent dye that is taken up by viable neurons. […]
# In some experiments, a fluorescence image of the entire well within a plate was captured using a flash cytometer (Trophos). […]
compound,measurement,setting,value
CC1=C(CO)C(=O)OC([C@@H](C)C2CCC3C4C[C@H]5O[C@]56[C@@H](O)C=CC(=O)[C@]6(C)C4CC[C@@]32C)C1 (stereo partly drawn) [Withaferin A],reduction in cell death of motor neurons plated in the absence of BDNF,200 nM (0.2 μM),50%
same,reduction in cell death of motor neurons plated in the absence of BDNF,400 nM (0.4 μM),75%
same,neurite growth of motor neurons,FIG. 12D,induces the growth of neurites
